Experiments:
Trop2+ MDA-MB-453 cells = assay: Antigen dependent human monocyte activation in mouse model, TROP2+ tumor; assay type: in vivo; details: NOD SCID mice with TROP2+ tumor, 5-20 mg/kg intravenously, human monocytes injected intratumorally
Protocol: (§1) Human monocytes were prepared as described above. Trop2^+ MDA-MB-453 cells or Trop2^− MiaPaca2 were cultured by standard methods. A TLR8 benzazepine linker payload (LP) was prepared by attaching a MCC (N-maleimidomethyl]cyclohexane-1-carboxylate) linker in place of the mc-vc-PABA linker in Compound-Linker 2.1 to form Compound-Linker 2.22. TROP2-TLR8 benzazepine conjugates were prepared by conjugation of Compound-Linker 2.22 to a TROP2 antibody (sacituzumab) to form a conjugate with an average DAR of about 4.
(§2) On Day 1 NOD SCID mice were injected with 5×10^5 Trop2^+ MDA-MB-453 cells or Trop2-MiaPaca2 cells. Seven to ten days later when the tumor size reached about 300 mm^3, the mice were injected intraveneously with 5-20 mg/kg of the TROP2-TLR8 benzazepine conjugate or TROP2 antibody alone. Sixteen hours later, 10^6 human monocytes were injected intratumorally. Four to six hours later, the tumors were harvested and digested. Monocytes were identified by staining for cell surface markers and monocyte activation was determined by intracellular staining for IL-6.

Trop2− MiaPaca2 = assay: Antigen dependent human monocyte activation in mouse model, TROP2− tumor; assay type: in vivo; details: NOD SCID mice with TROP2− tumor, 5-20 mg/kg intravenously, human monocytes injected intratumorally
Protocol: as §1, §2

control antibody: "TROP2 antibody alone"; "a TROP2 antibody (sacituzumab)"
human monocyte activation (intracellular staining for IL-6) (Trop2+ MDA-MB-453 cells): did not cause human monocyte activation | human monocyte activation (intracellular staining for IL-6) (Trop2− MiaPaca2): did not cause human monocyte activation
